The values that follow come from publication PMC4071600, “Amino Alcohols from the Ascidian Pseudodistoma sp” (Marine Drugs, 2014).

SMILES strings stand for the structures.

One may read the IC50 as the concentration needed to halve the response being measured.

The assay has as its target T1, Na^+/K^+-ATPase.
T1 construct: gene ATP1A1; with Sodium/potassium-transporting ATPase subunit beta-1
Description: Na+/K+-ATPase inhibition assay (by reference). The assay is classed as biochemical. From the text: Na+/K+-ATPase inhibition assay (by reference) on Na^+/K^+-ATPase
`CCCCCCCCC/C=C/[C@H](O)[C@H](C)N` [compound 1, (E)-2-aminotetradec-4-en-3-ol] came in with an IC50 of 62 µM.
Under `CCCCCCCC/C=C/C[C@H](O)[C@H](C)N` [compound 2, Pseudoaminol B] stands 78.4 µM; under `CCCCCCC/C=C/C=C/[C@H](O)[C@H](C)N` [compound 3, Pseudoaminol C], greater than 200 µM.
`CCCCCCCC/C=C/C[C@H](O)CN` [compound 4, Pseudoaminol D] gave an IC50 of 190 µM.
The value for `CC/C=C\C/C=C\CC/C=C/C=C/[C@H](O)[C@H](C)N` [compound 5, Pseudoaminol E] was 101 µM.
Under `CCCCCCCCC/C=C/[C@H](O)[C@H](C)NCC(=O)O` [compound 6, Pseudoaminol F] stands greater than 200 µM; under `CC/C=C\C/C=C\CC/C=C/C=C/[C@H](O)[C@H](C)NCC(=O)O` [compound 7, Pseudoaminol G], greater than 200 µM; under `CCCCCCCCC/C=C/[C@@H]1OC(=O)N[C@H]1C` [compound 8, Compound 8], 71.4 µM.
The molecule `CCCCCCCCCCC[C@H](O)[C@H](C)N` [compound 9, Compound 9] registered an IC50 of 46.8 µM.
The value for `CCCCCCCCCCC[C@H](O)[C@H](C)NC(C)=O` [compound 10, Compound 10] was 118 µM; that for `CCCCCCCCCCC[C@H](OC(=O)c1ccccc1)[C@H](C)NC(=O)c1ccccc1` [compound 12, Compound 12] was 108 µM; that for `CCCCCCCCCCC[C@H](O)CN` [compound 13, Compound 13] was 130 µM.
Under `CCCCCCCCCCC[C@H](O)CNC(C)=O` [compound 14, Compound 14] stands greater than 200 µM.
